Columns and labels:
[1] = biological target: T1, human angiotensin II type 1 receptor (Homo sapiens, UniProt P30556); assay: Angiotensin II type 1 receptor inhibitory effect (aequorin luminescence, angiotensin II at EC80); format: cell-based; settings: CHO-K1-mt aequorin-Gα16 cells expressing human AT1 receptor
T1 construct: expressed in transfected cells; host or cells: CHO-K1-mt aequorin-Gα16 cells
T1 sequence (P30556 1-359): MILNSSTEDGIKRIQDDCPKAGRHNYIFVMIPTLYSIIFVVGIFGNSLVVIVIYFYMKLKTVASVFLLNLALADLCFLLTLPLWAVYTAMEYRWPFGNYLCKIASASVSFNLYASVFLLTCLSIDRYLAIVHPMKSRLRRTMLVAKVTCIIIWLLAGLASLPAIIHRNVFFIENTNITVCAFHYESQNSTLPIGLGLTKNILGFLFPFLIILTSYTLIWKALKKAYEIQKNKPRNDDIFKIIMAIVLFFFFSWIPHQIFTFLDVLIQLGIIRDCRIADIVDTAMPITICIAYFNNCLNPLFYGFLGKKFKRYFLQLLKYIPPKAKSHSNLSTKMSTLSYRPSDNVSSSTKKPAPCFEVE
Procedure: The inhibitory effect on angiotensin II type 1 receptor was studied by the following method.
CHO-K1-mt aequorin-Gα16 cells forced to express human angiotensin II type 1 receptor (Accession Number: NP 000676.1) were cultured in an antibiotic-free medium for 18 hours and then treated with PBS-EDTA (5 mM EDTA). After centrifugation (2 minutes, 405×g, room temperature), the cells were suspended in assay buffer (DMEM/HAM's F12 with HEPES+0.1% BSA protease free).
1×10^6 cells/mL of the cells were incubated at room temperature for 4 hours or more in the presence of Coelenterazin h (Molecular Probes) at a final concentration of 5 µM to confirm the agonist response by angiotensin II, and determine the concentration of angiotensin II corresponding to EC 80.
(§1) Then, 50 μL of the cell suspension treated with Coelenterazin h at 10,000 cells/well and 50 μL of assay buffer containing the test substance (final concentration: 0.5% DMSO) were added to a 96-well plate. After 15 minutes, 100 μL of angiotensin II solution was added so that the final concentration reached the EC80 concentration, and the receptor activity was measured by the amount of luminescence using FDSS6000 (Hamamatsu Photonics). IC50 values were calculated using XLfit (IDBS).

[2] = tested on: Angiotensin II-Induced Hypertensive Activity; assay: Suppressive effect on angiotensin II-induced hypertensive activity; format: in vivo; settings: anesthetized male Wistar rats; 1 mg/kg intravenously over 10 minutes, then ATII 300 ng/kg i.v.; 20 seconds after ATII; n=3
Procedure: Male Wistar rats aged 8 to 12 weeks underwent catheterization of the trachea for airway management, catheterization of the carotid artery for blood pressure measurement, and catheterization of the femoral vein for angiotensin II (ATII) administration, under analgesic treatment and urethane anesthesia. After confirming that blood pressure and heart rate had stabilized, 1 mg/kg (15 mL/kg) of solvent (PBS) or test substance (the compound of Example 1) adjusted with the solvent was administered intravenously over 10 minutes. Then, ATII (300 ng/kg) was administered intravenously and blood pressure was monitored until 10 minutes after administration. The test was performed with n=3 in each group. For analysis, using 2 minutes before ATII administration as a pre-value, the systolic and diastolic blood pressures at the pre-value and 20 seconds immediately after ATII administration, when the blood pressure is maximum, were determined and the differences (delta values) from the pre-values were calculated. Student's t-test was used to compare the delta values between the solvent administration group and test substance administration group.

[3] = biological target: T2, human endothelin A receptor (Homo sapiens, UniProt P25101); assay: Endothelin A receptor inhibitory effect (aequorin luminescence, endothelin at EC80); format: cell-based; settings: CHO-K1-mt aequorin cells expressing human endothelin A receptor, read-out: ETA Receptor Inhibitory Effect
T2 construct: expressed in transfected cells; host or cells: CHO-K1-mt aequorin cells
T2 sequence (P25101 21-427): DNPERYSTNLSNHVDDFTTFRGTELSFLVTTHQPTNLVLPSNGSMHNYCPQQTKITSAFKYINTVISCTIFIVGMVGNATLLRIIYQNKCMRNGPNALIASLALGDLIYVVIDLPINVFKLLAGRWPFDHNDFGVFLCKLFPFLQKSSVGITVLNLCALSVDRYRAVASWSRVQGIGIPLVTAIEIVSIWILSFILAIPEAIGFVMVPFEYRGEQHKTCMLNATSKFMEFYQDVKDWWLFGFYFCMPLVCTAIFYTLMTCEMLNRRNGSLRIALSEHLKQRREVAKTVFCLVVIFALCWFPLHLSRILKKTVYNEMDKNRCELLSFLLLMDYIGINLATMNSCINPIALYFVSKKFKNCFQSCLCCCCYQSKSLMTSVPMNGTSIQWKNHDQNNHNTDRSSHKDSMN
Procedure: The inhibitory effect on endothelin A receptor was studied by the following method.
CHO-K1-mt aequorin cells forced to express human endothelin A receptor (Accession Number: NP_001948.1) were cultured in an antibiotic-free medium for 18 hours and then treated with PBS-EDTA (5 mM EDTA). After centrifugation (2 minutes, 405×g, room temperature), the cells were suspended in assay buffer (DMEM/HAM'S F12 with HEPES+0.1% BSA protease free). 1×10^6 cells/mL of the cells were incubated at room temperature for 4 hours in the presence of Coelenterazin h (Molecular Probes) at a final concentration of 5 μM to confirm the agonist response by endothelin, and determine the concentration of endothelin corresponding to EC 80.
as §1, with “endothelin” for “100 μL of angiotensin II solution”

CCCCC1=NC2(CCCC2)C(=O)N1Cc1ccc(-c2ccccc2S(=O)(=O)Nc2noc(C)c2C)c2c1COC2 [Example 1, 2-(7-((2-Butyl-4-oxo-1,3-diazaspiro[4,4]nona-1-en-3-yl)methyl)-1,3-dihydroisobenzofuran-4-yl)-N-(4,5-dimethylisoxazol-3-yl)benzenesulfonamide]
IC50 [1]: ≤ 1 nM
Diastolic Blood Pressure, difference (delta value) from pre-value [2]: 9 ± 5
Systolic Blood Pressure, difference (delta value) from pre-value [2]: 8 ± 3
IC50 [3]: > 100 nM

CCCCC1=NC2(CCCC2)C(=O)N1Cc1ccc(-c2ccccc2S(=O)(=O)Nc2ncc(C)nc2OC)c2c1COC2 [Example 2, 2-(7-((2-Butyl-4-oxo-1,3-diazaspiro[4,4]nona-1-en-3-yl)methyl)-1,3-dihydroisobenzofuran-4-yl)-N-(3-methoxy-5-methylpyrazin-2-yl)benzenesulfonamide]
IC50 [1]: 1 to 100 nM
IC50 [3]: 1 to 100 nM

CCCCC1=NC2(CCCC2)C(=O)N1Cc1ccc(-c2ccccc2S(=O)(=O)Nc2noc(C)c2Cl)c2c1COC2 [Example 3, 2-(7-((2-Butyl-4-oxo-1,3-diazaspiro[4,4]nona-1-en-3-yl)methyl)-1,3-dihydroisobenzofuran-4-yl)-N-(4-chloro-5-methylisoxazol-3-yl)benzenesulfonamide]
IC50 [1]: 1 to 100 nM
IC50 [3]: 1 to 100 nM

Reference: patent US20250051315A1, “COMPOUND, ANGIOTENSIN II TYPE 1 RECEPTOR ANTAGONIST AND PHARMACEUTICAL COMPOSITION” (Alchemedicine, Inc., priority 2021, published 2025)
